Experimental data published in patent EP4768484A1, “HETEROCYCLIC FUSED RING COMPOUND, AND COMPOSITION AND USE THEREOF” (Shenzhen TargetRx, Inc., priority 2023, dated 2025).

Experiments:
Format in all cases: cell-based
K562 cells = assay: Cell growth inhibitory activity assay (CellTiter-Glo), K562 cells; settings: Homo sapiens, 72 h, CTG cell viability
Procedure: (§1) In this assay, the Celltiter-Glo (CTG) kit provided by Promega was used, and it is a homogeneous cell viability assay method. The cell viability of cultured cells was measured by quantifying ATP. K562 cells were purchased from Nanjing Kebai, product number CBP60529; Ba/F3 parental cells were purchased from RIKEN BRC, product number RCB0805; other cells containing BCR-ABL1 WT, BCR-ABL1 T315I, BCR-ABL1 T315M, BCR-ABL1 Y253H/E255K, BCR-ABL1 E255V/T3151, BCR-ABL1 A424T, BCR-ABL1 A337V, BCR-ABL1 P465S, BCR-ABL1 V468F, and BCR-ABL1 I502L were all monoclonal engineered cell lines obtained by transducting Ba/F3 parental cells with the lentivirus plasmids containing WT or corresponding mutated BCR-ABL1.
(§2) The steps of cell viability assay are as follows: • a) Cells in logarithmic growth phase were collected. Cell suspension was prepared and the cells were counted. Concentration of the cells was calculated. • b) The cell suspension was diluted to the required concentration and then added to the middle wells of a 96-well plate, and PBS was added to the edge wells. The wells with no cells and only culture medium were used as blank controls. • c) In addition to the cell plate used for compound analysis, another 96-well plate was prepared as a T0 plate, and 3-6 blank wells and 3-6 cell wells were added. The next day, CTG was used to test the cell viability as the T0 viability value of the cells. • d) The cell plate was incubated at 37 °C in a 5% CO2 incubator overnight. • e) The next day, each concentration of a compound subjected to a gradient dilution was added, and the cell plate was incubated at 37 °C in a 5% CO2 incubator for 72 h. The wells with no compound and only 0.5% DMSO were used as positive controls for cell growth. • f) CTG reagent (CellTiter-Glo kit) was added according to the manufacturer's instructions to test the cell viability value. • g) The plate was read using Biotek cytation3.0 microplate reader and the data were exported. • h) IC50 was calculated using GraphPad Prism 7.0 software.
(§3) The IC50 (half-maximal inhibitory concentration) of the compound was obtained using the following nonlinear fitting formula: Y = Bottom + (Top−Bottom)/(1+10^(∧)((LogIC50−X)*HillSlope)) [formula] • X: Log value of the compound concentration • Y: Inhibition rate (% inhibition) • Top: Maximum response • Bottom: Baseline response • HillSlope: Slope of the curve
(§4) The formula for calculating cell inhibition rate (inhibition rate %) was: [formula]

Ba/F3 BCR-ABL1 T315I = biological target: T1, Ba/F3 BCR-ABL1 T315I (Homo sapiens, UniProt P00519+P11274, T315I); assay: Cell growth inhibitory activity assay (CellTiter-Glo), Ba/F3 BCR-ABL1 T315I cells; settings: 72 h, CTG cell viability
T1 construct: BCR (N-terminal fusion partner of the oncoprotein); expressed in transfected cells; host or cells: Ba/F3 (lentiviral transduction, monoclonal line)
Procedure: as §1, §2, §3, §4

Ba/F3 parental cells = assay: Cell growth inhibitory activity assay (CellTiter-Glo), Ba/F3 parental cells; settings: Mus musculus, BaF3, 72 h, CTG cell viability, read-out: IC50 Ba/F3 BCR-ABL1 Parental
Procedure: as §1, §2, §3, §4

Ba/F3 BCR-ABL1 WT = biological target: T2, Ba/F3 BCR-ABL1 WT (Homo sapiens, UniProt P00519+P11274); assay: Cell growth inhibitory activity assay (CellTiter-Glo), Ba/F3 BCR-ABL1 WT cells; settings: 72 h, CTG cell viability
T2 construct: BCR (N-terminal fusion partner of the oncoprotein); expressed in transfected cells; host or cells: Ba/F3 (lentiviral transduction, monoclonal line)
Procedure: as §1, §2, §3, §4

Row | IC50 (K562 cells) [nM] | Structure (SMILES) | IC50 (Ba/F3 BCR-ABL1 T315I) [nM] | IC50 (Ba/F3 parental cells) [nM] | IC50 (Ba/F3 BCR-ABL1 WT) [nM]
1 | ≤ 5 | C[C@@H]1COCc2nc3cc(C(=O)Nc4ccc(OC(F)(F)Cl)cc4)cc(-c4cnc5c(c4)-c4nn(-c6nccc(-c7ccc(F)cc7)n6)cc4C5)c3n21 [T-89, (R)-N-(4-(chlorodifluoromethoxy)phenyl)-6-(2-(4-(4-fluorophenyl)pyrimidin-2-yl)-2,4-dihydropyrazolo[3',4':3,4]cyclopenta[1,2-b]pyridin-7-yl)-4-methyl-3,4-dihydro-1H-benzo[4,5]imidazo[2,1-c][1,4]oxazine-8-carboxamide] | ≤ 5 | > 1000 | ≤ 5
2 | ≤ 5 | O=C(Nc1ccc(OC(F)(F)Cl)cc1)c1cnc(N2CC[C@@H](F)C2)c(-c2cnc3c(c2)-c2nn(-c4nccc(N5CCOCC5)n4)cc2C3)c1 [T-34, (R)-N-(4-(chlorodifluoromethoxy)phenyl)-6-(3-fluoropyrrolidin-1-yl)-5-(2-(4-morpholinopyrimidin-2-yl)-2,4-dihydropyrazolo[3',4':3,4]cyclopenta[1,2-b]pyridin-7-yl)nicotinamide] | ≤ 5 | > 1000 | ≤ 5
3 | ≤ 5 | Cc1ccc(-n2cc3c(n2)-c2cc(-c4cc(C(=O)Nc5ccc(OC(F)(F)Cl)cc5)cc5nc6n(c45)[C@H](C)COC6)cnc2C3)nn1 [T-104-A, (R)-N-(4-(chlorodifluoromethoxy)phenyl)-4-methyl-6-(2-(6-methylpyridazin-3-yl)-2,4-dihydropyrazolo[3',4':3,4]cyclopenta[1,2-b]pyridin-7-yl)-3,4-dihydro-1H-benzo[4,5]imidazo[2,1-c][1,4]oxazine-8-carboxamide] | 5 to 50 | > 1000 | ≤ 5
4 | ≤ 5 | C[C@@H]1COCc2nc3cc(C(=O)Nc4ccc(OC(F)(F)Cl)cc4)cc(-c4cnc5c(c4)C(=O)/C(=C\N(C)C)C5)c3n21 [T-59, (R,Z)-N-(4-(chlorodifluoromethoxy)phenyl)-6-(6-((dimethylamino)methylene)-5-oxo-6,7-dihydro-5H-cyclopenta[b]pyridin-3-yl)-4-methyl-3,4-dihydro-1H-benzo[4,5]imidazo[2,1-c][1,4]oxazine-8-carboxamide] | 50 to 1000 | > 1000 | ≤ 5
5 | ≤ 5 | C[C@@H]1COCc2nc3cc(C(=O)Nc4ccc(OC(F)(F)Cl)cc4)cc(-c4cnc5c(c4)-c4nn(-c6nccc(-c7cccnc7)n6)cc4C5)c3n21 [T-87, (R)-N-(4-(chlorodifluoromethoxy)phenyl)-4-methyl-6-(2-(4-(pyridin-3-yl)pyrimidin-2-yl)-2,4-dihydropyrazolo[3',4':3,4]cyclopenta[1,2-b]pyridin-7-yl)-3,4-dihydro-1H-benzo[4,5]imidazo[2,1-c][1,4]oxazine-8-carboxamide] | ≤ 5 | > 1000 | ≤ 5
6 | ≤ 5 | COc1cccc(-c2ccnc(-n3cc4c(n3)-c3cc(-c5cc(C(=O)Nc6ccc(OC(F)(F)Cl)cc6)cc6nc7n(c56)[C@H](C)COC7)cnc3C4)n2)c1F [T-93, (R)-N-(4-(chlorodifluoromethoxy)phenyl)-6-(2-(4-(2-fluoro-3-methoxyphenyl)pyrimidin-2-yl)-2,4-dihydropyrazolo[3',4':3,4]cyclopenta[1,2-b]pyridin-7-yl)-4-methyl-3,4-dihydro-1H-benzo[4,5]imidazo[2,1-c][1,4]oxazine-8-carboxamide] | ≤ 5 | > 1000 | ≤ 5
7 | ≤ 5 | C[C@@H]1COCc2nc3cc(C(=O)Nc4ccc(OC(F)(F)Cl)cc4)cc(-c4cnc5c(c4)-c4nn(-c6nccc(-c7ccccc7F)n6)cc4C5)c3n21 [T-92, (R)-N-(4-(chlorodifluoromethoxy)phenyl)-6-(2-(4-(2-fluorophenyl)pyrimidin-2-yl)-2,4-dihydropyrazolo[3',4':3,4]cyclopenta[1,2-b]pyridin-7-yl)-4-methyl-3,4-dihydro-1H-benzo[4,5]imidazo[2,1-c][1,4]oxazine-8-carboxamide] | ≤ 5 | > 1000 | ≤ 5
